Measured values as given in patent US6432959B1, “Inhibitors of farnesyl-protein transferase” (Schering Corporation, priority 1998, dated 2002).
“And” between values parts separate entries of the source, which are not always exact repeats. Equal entries are not always repeated.

Tests used:
[1] = target: T1, partially purified rat brain farnesyl protein transferase (FPT) (Rattus norvegicus, UniProt Q02293+Q04631); experiment: FPT IC50, in vitro enzyme assay (inhibition of Ras-CVLS farnesylation); format: biochemical; details: inhibition of Ras-CVLS farnesylation by partially purified rat brain FPT; value is a range stated for a group of compounds
T1 construct: partially purified rat brain farnesyl protein transferase (FPT); from tissue; host or cells: rat brain
Description: 1. In vitro enzyme assays: FPT IC50 (inhibition of farnesyl protein transferase, in vitro enzyme assay) are determined by the methods disclosed in WO/10515 or WO95/10516.

SMILES	melting point	IC50 [1]
CC(C)(C)OC(=O)N1CCN(C(=O)NC2CCCCC2)[C@@H](C(=O)NCCc2cncn2Cc2ccc(F)cc2)C1 [Example 2]	72 °C (dec.)	–
N#Cc1ccc(Cn2cncc2CCNC(=O)[C@H]2CN(Cc3nccs3)CCN2C(=O)NC2CCCCC2)cc1 [Example 8]	–	0.18 to 21 nM
CC(C)(C)CCN1CCN(C(=O)NC2CCCCC2)[C@@H](C(=O)NCCc2cncn2Cc2ccc(C#N)cc2)C1 [Example 9]	–	0.18 to 21 nM
N#Cc1ccc(CN2CCN(C(=O)NC3CCCCC3)[C@@H](C(=O)NCCc3cncn3Cc3ccc(C#N)cc3)C2)cc1 [Example 10]	–	0.18 to 21 nM
N#Cc1ccc(Cn2cncc2CCNC(=O)[C@H]2CN(Cc3ccccc3C#N)CCN2C(=O)NC2CCCCC2)cc1 [Example 11]	–	0.18 to 21 nM
COc1ccc(CN2CCN(C(=O)NC3CCCCC3)[C@@H](C(=O)NCCc3cncn3Cc3ccc(C#N)cc3)C2)cc1 [Example 12]	–	0.18 to 21 nM
N#Cc1ccc(Cn2cncc2CCNC(=O)[C@H]2CN(CC3CCCCC3)CCN2C(=O)NC2CCCCC2)cc1 [Example 13]	–	0.18 to 21 nM
N#Cc1ccc(Cn2cncc2CCNC(=O)[C@H]2CN(Cc3ccc(F)cc3)CCN2C(=O)NC2CCCCC2)cc1 [Example 14]	–	0.18 to 21 nM
N#Cc1ccc(Cn2cncc2CCNC(=O)[C@H]2CN(Cc3ccc(C(F)(F)F)cc3)CCN2C(=O)NC2CCCCC2)cc1 [Example 15]	–	0.18 to 21 nM
N#Cc1ccc(Cn2cncc2CCNC(=O)[C@H]2CN(Cc3ccc(Cl)cc3)CCN2C(=O)NC2CCCCC2)cc1 [Example 16]	–	0.18 to 21 nM
N#Cc1ccc(Cn2cncc2CCNC(=O)[C@H]2CN(Cc3ccc(Br)cc3)CCN2C(=O)NC2CCCCC2)cc1 [Example 17]	–	0.18 to 21 nM
CC(=O)Nc1ccc(CN2CCN(C(=O)NC3CCCCC3)[C@@H](C(=O)NCCc3cncn3Cc3ccc(C#N)cc3)C2)cc1 [Example 20]	–	0.18 to 21 nM
N#Cc1ccc(Cn2cncc2CCNC(=O)[C@H]2CN(Cc3cccc4ccccc34)CCN2C(=O)NC2CCCCC2)cc1 [Example 21]	–	0.18 to 21 nM
Cc1ccc(CN2CCN(C(=O)NC3CCCCC3)[C@@H](C(=O)NCCc3cncn3Cc3ccc(C#N)cc3)C2)cc1 [Example 22]	–	0.18 to 21 nM
N#Cc1ccc(Cn2cncc2CCNC(=O)[C@H]2CN(Cc3ccc(O)cc3)CCN2C(=O)NC2CCCCC2)cc1 [Example 23]	–	0.18 to 21 nM
N#Cc1ccc(Cn2cncc2CCNC(=O)[C@H]2CN(Cc3ccc(Cl)cc3Cl)CCN2C(=O)NC2CCCCC2)cc1 [Example 24]	–	0.18 to 21 nM
N#Cc1ccc(Cn2cncc2CCNC(=O)[C@H]2CN(Cc3cccc(Cl)c3)CCN2C(=O)NC2CCCCC2)cc1 [Example 25]	–	0.18 to 21 nM
COc1cccc(CN2CCN(C(=O)NC3CCCCC3)[C@@H](C(=O)NCCc3cncn3Cc3ccc(C#N)cc3)C2)c1 [Example 26]	–	0.18 to 21 nM
COc1ccccc1CN1CCN(C(=O)NC2CCCCC2)[C@@H](C(=O)NCCc2cncn2Cc2ccc(C#N)cc2)C1 [Example 27]	–	0.18 to 21 nM
O=C(NCCc1cncn1Cc1ccc(Cl)cc1)[C@H]1CN(Cc2ccccc2)CCN1C(=O)NC1CCCCC1 [Example 28C, N4-phenylmethyl-N2-[2-[1-[(4-chlorophenyl)methyl]-1H-imidazol-5-yl]ethyl]-N1-cyclohexyl-1,2(R)-piperazinedicarboxamide]	116.2 °C	0.18 to 21 nM
O=C(NCCc1cncn1CCc1ccccc1)[C@H]1CN(Cc2ccccc2)CCN1C(=O)NC1CCCCC1 [Example 28D, N4-phenylmethyl-N2-[2-[1-(phenylethyl)-1H-imidazol-5-yl]ethyl]-N1-cyclohexyl-1,2(R)-piperazinedicarboxamide]	64.4 °C	–
CCC(=O)N1CCN(Cc2ccccc2)C[C@@H]1C(=O)NCCc1cncn1Cc1ccc(C#N)cc1 [Example 28E, N-[2-[1-[(4-cyanophenyl)methyl]-1H-imidazol-5-yl]ethyl]-1-(1-oxopropyl)-4-phenyl(methyl)-2(R)-piperazinedicarboxamide]	–	0.18 to 21 nM
CCCC(=O)N1CCN(Cc2ccccc2)C[C@@H]1C(=O)NCCc1cncn1Cc1ccc(C#N)cc1 [Example 28F, N-[2-[1-[(4-cyanophenyl)methyl]-1H-imidazol-5-yl]ethyl]-1-(1-oxobutyl)-4-phenyl(methyl)-2(R)-piperazinedicarboxamide]	–	0.18 to 21 nM
N#Cc1ccc(Cn2cncc2CCNC(=O)[C@H]2CN(Cc3ccccc3)CCN2C(=O)c2ccccc2)cc1 [Example 28G, 1-benzoyl-N-[2-[1-[(4-cyanophenyl)methyl]-1H-imidazol-5-yl]ethyl]-4-phenylmethyl-2(R)-piperazinedicarboxamide]	115.3 to 170.3 °C	0.18 to 21 nM
N#Cc1ccc(Cn2cncc2CCNC(=O)C2CN(CCC3CCCCC3)CCN2C(=O)NC2CCCCC2)cc1 (stereo not shown) [Example 32]	–	0.18 to 21 nM

Second part, the compound after the results:

melting point	IC50 [1]	SMILES
85.6 to 96.7 °C	0.18 to 21 nM	N#Cc1ccc(Cn2cncc2CCNC(=O)[C@H]2CN(Cc3ccccc3)CCN2C(=O)Cc2ccccc2)cc1 [Example 28I, N-[2-[1-[(4-cyanophenyl)methyl]-1H-imidazol-5-yl]ethyl]-1-phenylacetyl-4-(phenylmethyl)-2(R)-piperazinedicarboxamide]
97.3 to 150.2 °C	–	CCS(=O)(=O)N1CCN(Cc2ccccc2)C[C@@H]1C(=O)NCCc1cncn1Cc1ccc(C#N)cc1 [Example 28K, N-[2-[1-[(4-cyanophenyl)methyl]-1H-imidazol-5-yl]ethyl]-1-(ethylsulfonyl)-4-(phenylmethyl)-2(R)-piperazinecarboxamide]
–	0.18 to 21 nM	N#Cc1ccc(Cn2cncc2CCNC(=O)[C@H]2CN(Cc3ccccc3)CCN2S(=O)(=O)Cc2ccccc2)cc1 [Example 28M, N-[2-[1-[(4-cyanophenyl)methyl]-1H-imidazol-5-yl]ethyl]-1-[(phenylmethyl)sulfonyl]-4-(phenylmethyl)-2(R)-piperazinecarboxamide]
97.8 °C	0.18 to 21 nM and 0.18 to 1.5 nM	CC(C)(C)NC(=O)N1CCN(Cc2ccccc2)C[C@@H]1C(=O)NCCc1cncn1Cc1ccc(C#N)cc1 [Example 28O, N2-[2-[1-[(4-cyanophenyl)methyl]-1H-imidazol-5-yl]ethyl]-N1-(1,1-dimethylethyl)-4-(phenylmethyl)-1,2(R)-piperazinedicarboxamide]
–	0.18 to 21 nM	N#Cc1ccc(Cn2cncc2CCNC(=O)[C@H]2CN(Cc3ccccc3)CCN2C(=O)Cc2cc[n+]([O-])cc2)cc1 [Example 28P, N-[2-[1-[(4-cyanophenyl)methyl]-1H-imidazol-5-yl]ethyl]-4-(phenylmethyl)-1-(4-pyridinylacetyl)-2(R)-piperazinecarboxamide N1-oxide]
118.5 °C	0.18 to 21 nM	N#Cc1ccc(Cn2cncc2CCNC(=O)[C@H]2CN(Cc3ccccc3)CCN2C(=O)CC2CCN(C(N)=O)CC2)cc1 [Example 28Q, 1-[[1-(aminocarbonyl)-4-piperidinyl]acetyl]-N-[2-[1-[(4-cyanophenyl)methyl]-1H-imidazol-5-yl]ethyl]-4-(phenylmethyl)-2(R)-piperazinecarboxamide]
143.6 °C	0.18 to 21 nM	N#Cc1ccc(Cn2cncc2CCNC(=O)[C@H]2CN(S(=O)(=O)c3ccccc3)CCN2C(=O)NC2CCCCC2)cc1 [Example 28R, N2-[2-[1-[(4-Cyanophenyl)methyl]-1H-imidazol-5-yl]ethyl]-N1-cyclohexyl-4-(phenylsulfonyl)-1,2(R)-piperazinedicarboxamide]
89.1 °C	0.18 to 21 nM	O=C([C@H]1CN(Cc2ccccc2)CCN1C(=O)NC1CCCCC1)N(CCCn1ccnc1)Cc1ccccc1 [Example 28S, N1-cyclohexyl-N2-[3-(1H-imidazol-1-yl)propyl]-N2,4-bis(phenylmethyl)-1,2(R)-piperazinedicarboxamide]
71 to 75 °C	–	CC(C)(C)OC(=O)N1CCN(C(=O)OCc2ccccc2)[C@@H](C(=O)NCCCn2ccnc2C(N)=O)C1 [Example 28Z]
–	0.18 to 21 nM	N#Cc1ccc(Cn2cncc2CCNC(=O)[C@H]2CN(Cc3ccccc3Cl)CCN2C(=O)NC2CCCCC2)cc1 [Example 28]
–	0.18 to 21 nM	N#Cc1ccc(Cn2cncc2CCNC(=O)C2CN(CCc3ccccc3)CCN2C(=O)NC2CCCCC2)cc1 (stereo not shown) [Example 29]
–	0.18 to 21 nM	CS(=O)(=O)N1CCN(CCc2ccccc2)CC1C(=O)NCCc1cncn1Cc1ccc(C#N)cc1 (stereo not shown) [Example 31]
–	0.18 to 21 nM	CCCCCN1CCN(S(C)(=O)=O)C(C(=O)NCCc2cncn2Cc2ccc(C#N)cc2)C1 (stereo not shown) [Example 34]
–	0.18 to 21 nM	O=C(NCCc1cncn1Cc1ccc(Cl)c(Cl)c1)C1CN(CCC2CCCCC2)CCN1C(=O)NC1CCCCC1 (stereo not shown) [Example 36]
–	0.18 to 21 nM	N#Cc1ccc(Cn2cncc2CCNC(=O)C2CN(C(=O)c3ccncc3)CCN2C(=O)NC2CCCCC2)cc1 (stereo not shown) [Example 42]
–	0.18 to 21 nM	CCCCNC(=O)N1CCN(C(=O)NC2CCCCC2)C(C(=O)NCCc2cncn2Cc2ccc(C#N)cc2)C1 (stereo not shown) [Example 47]
–	0.18 to 21 nM	O=C(NCCc1cncn1Cc1ccc(C(F)(F)F)cc1)C1CN(CCc2cccc(Cl)c2)CCN1C(=O)NC1CCCCC1 (stereo not shown) [Example 53]
–	0.18 to 21 nM and 0.18 to 1.5 nM	N#Cc1ccc(Cn2cncc2CCNC(=O)C2CN(CCc3cccc(Cl)c3)CCN2C(=O)NC2CCCCC2)cc1 (stereo not shown) [Example 54]
–	0.18 to 21 nM and 0.18 to 1.5 nM	Cc1ccc(CCN2CCN(C(=O)NC3CCCCC3)C(C(=O)NCCc3cncn3Cc3ccc(C#N)cc3)C2)cc1O (stereo not shown) [Example 55]
–	0.18 to 21 nM	CC(C)(C)CCN1CCN(C(=O)NC2CCCCC2)C(C(=O)NCCc2cncn2Cc2ccc(Cl)c(Cl)c2)C1 (stereo not shown) [Example 56]
–	0.18 to 21 nM	COc1cccc(CN2CCN(C(=O)NC3CCCCC3)C(C(=O)NCCc3cncn3Cc3ccc(Cl)c(Cl)c3)C2)c1 (stereo not shown) [Example 58]
–	0.18 to 21 nM	Cn1cncc1CCNC(=O)C1CN(CCC2CCCCC2)CCN1C(=O)NC1CCCCC1 (stereo not shown) [Example 61]
–	0.18 to 21 nM	O=C(NCCc1cncn1Cc1ccccc1)[C@H]1CN(CCC2CCCCC2)CCN1C(=O)NC1CCCCC1 [Example 64]
